From patent publication US6521627B1, “5-Iodo-4-phenethylaminopyrimidine derivative, intermediate thereof, processes for producing the same and agricultural and horticultural pesticides” (UBE Industries, Ltd., priority 1998, dated 2003) come the findings set out here.

Structures are written as SMILES.

The test system of data set [1] is southern root knot nematodes. In words: Test of effect on southern root knot nematodes. Format: in vivo, southern potato root knot nematodes. Conditions: wettable powder diluted to 300 ppm, 0.1 ml plus 0.9 ml solution containing 500 nematodes; 25° C., after 2 days. As for the experimental part: (1) Test of effect on southern root knot nematodes The respective wettable powders of Compounds (1) shown in Table 2 prepared as in Example 3 were diluted to 300 ppm with water, 0.1 ml of which is taken into the test tubes, and 0.9 ml of a solution containing 500 southern potato root knot nematodes was added thereto, respectively. Subsequently, these test tubes were left to stand in a thermostat chamber at 25° C., and after 2 days, nematodecidal rate was determined by observing with microscope.

The test system of another data set is diamondback moth. The data set can be described thus: Test of effect on diamondback moth. Format: in vivo, diamondback moths (3rd instar larvae). The conditions noted are these: wettable powder diluted to 300 ppm; cabbage leaves dipped for 30 seconds; 25° C., after 2 days. As for the experimental part:
(3) Test of effect on diamondback moth The respective wettable powders of Compounds (1) shown in Table 2 prepared as in Example 3 were diluted to 300 ppm with water containing a surfactant (0.01%), and in these respective chemical solutions, cabbage leaves (5×5 cm) were dipped for 30 seconds, and each leaf was put into the respective plastic cups and air-dried. Subsequently, 10 diamondback moths (3rd instar larvae) were placed in the respective cups, and put the lids on them and they were left to stand in a thermostat chamber at 25° C., and after 2 days, insecticidal rate was determined by counting living and dead insects in the respective cups.

In a further data set the test system is brown rice planthopper. In words: Test of effect on brown rice planthopper. The class given is in vivo, brown rice planthoppers (4th instar larvae). The conditions noted are these: wettable powder diluted to 300 ppm; young seedlings of rice dipped for 30 seconds; 25° C., after 4 days. As for the experimental part:
(§1) (4) Test of effect on brown rice planthopper The respective wettable powders of Compounds (1) shown in Table 2 prepared as in Example 3 were diluted to 300 ppm with water containing a surfactant (0.01%), and in these respective chemical solutions, young seedlings of rice were dipped for 30 seconds, and after air-drying, each was put into the respective glass cylinders. Subsequently, 10 brown rice planthoppers (4th instar larvae) were placed in the respective glass cylinders, and porous stoppers were each placed on them and they were left to stand in a thermostat chamber at 25° C., and after 4 days, insecticidal rate was determined by counting living and dead insects in the respective cylinders.

For the next data set, the system named is green rice leafhopper. In words: Test of effect on green rice leafhopper. Format: in vivo, green rice leafhoppers (4th instar larvae). The conditions noted are these: wettable powder diluted to 300 ppm; young seedlings of rice dipped for 30 seconds; 25° C., after 4 days. As for the experimental part: as §1, with “(5)” for “(4)”, “green” for “brown”, “leafhopper” for “planthopper”, “leafhoppers” for “planthoppers”

Another data set has as its system tobacco cutworm. In words: Test of effect on tobacco cutworm. Conditions: wettable powder diluted to 500 ppm; soybean leaves dipped for 30 seconds; 25° C., after 2 days. Format: in vivo, tobacco cutworm (2nd instar larvae). As for the experimental part:
(6) Test of effect on tobacco cutworm The respective wettable powders of Compounds (1) shown in Table 2 prepared as in Example 3 were diluted to 500 ppm with water containing a surfactant (0.01%), and in these respective chemical solutions, leave of soybean were dipped for 30 seconds. After air-drying, each of the leave was put into the respective plastic cups, 10 tobacco cutworm (2nd instar larvae) were placed in the respective cups, and put the lids on them and they were left to stand in a thermostat chamber at 25° C. After 2 days, insecticidal rate was determined by counting living and dead insects in the respective cups.

In the case of `CC(F)c1ncnc(NCCc2ccc(F)cc2)c1I` (centres unmarked) [Compound 1-(5), 6-(1-fluoroethyl)-5-iodo-4-[2-(4-fluorophenyl)ethylamino]pyrimidine], the “nematodecidal effect (nematodecidal rate)” value (“nematodecidal effect” below) in data set [1] came to 100%. In addition, the “insecticidal effect (insecticidal rate)” value with diamondback moth, in the data set on brown rice planthopper, in the data set on green rice leafhopper and in the data set on tobacco cutworm was 100% in each case.
For `CC(=O)OC(C)c1ncnc(NCCc2ccccc2)c1I` (stereo not drawn) [Compound 1-(3), 6-(l-acetoxyethyl)-5-iodo-4-(2-phenylethylamino)pyrimidine], the “insecticidal effect (insecticidal rate)” value in the data set on diamondback moth worked out at 100%.
Consider `CC(F)c1ncnc(NCCc2ccccc2)c1I` (centres unmarked) [Compound 1-(1), 6-(1-fluoroethyl)-5-iodo-4-(2-phenylethylamino)pyrimidine], for which the “nematodecidal effect” value in data set [1] amounted to 100%. In addition, the “insecticidal effect (insecticidal rate)” value in the data set with diamondback moth, with brown rice planthopper and in the data set on green rice leafhopper was 100% each time.
Turning to `CC(=O)OC(C)c1ncnc(NCCc2ccc(OC(F)(F)F)cc2)c1I` (centres unmarked) [1-(21), 6-(1-acetoxyethyl)-5-iodo-4-[2-(4-trifluoromethoxyphenyl)ethylamino]pyrimidine], the melting point – broadly, the temperature, or range, at which the solid turns liquid – lay in the range of 77 to 79 °C.
Regarding `CC(F)c1ncnc(NCCc2ccc(OC(F)(F)F)cc2)c1I` (centres unmarked) [1-(23), 6-(1-fluoroethyl)-5-iodo-4-[2-(4-trifluoromethoxyphenyl)ethylamino]pyrimidine], the “nematodecidal effect” value in data set [1] amounted to 100%. The “insecticidal effect (insecticidal rate)” value in the data set with diamondback moth, with brown rice planthopper, with green rice leafhopper and in the data set on tobacco cutworm was 100% in each case.
`CC(Cl)c1ncnc(NCCc2ccccc2)c1I` (centres unmarked) [Compound 1-(2), 6-(1-chloroethyl)-5-iodo-4-(2-phenylethylamino)pyrimidine] gave a melting point of 101 to 102 °C.
